{"source": "patent US9063143B2", "about": "“Cancer platinum resistance detection and sensitization method” (University of South Florida, priority 2008, dated 2015)", "test_in_all_cases": "MTT cell proliferation assay, cisplatin resistance", "format_in_all_cases": "cell-based", "conditions_in_all_cases": "MTT proliferation rate at 2 μg/mL", "key": {"[1]": {"test_system": "A2780S ovarian cancer cell line", "description": "(§1) Ovarian cancer cell lines (C13, OV2008, A2780S, A2780CP, IGROV1, T8, A2008, IOSER, and OVCAR5) were grown in RPMI-1640 supplemented with 10% fetal bovine serum, 1% sodium pyruvate, and 1% nonessential amino acids. IOSER cells were grown in 1:1 MCBD105 and Medium 199, HEPES, Bovine Pituitary Extract, Insulin, hEGF, hydrocortisone and 15% FBS. All tissue culture reagents were obtained from Sigma Aldrich (St Louis, Mo.). Cells were maintained in a CO2 incubator at 37° C. and subcultured at 70% confluence. The cell lines consist of two from the NCI60 panel: IGR-OV1 (doubling time 31) and OVCAR-5 (doubling time 48.8). Several cell lines have mother/daughter relationships including A2008 and daughter C13; as well as A2780S/A2780CP.\n(§2) To induce the development of platinum-resistance, the nine ovarian cancer cell lines were subjected to serial treatments with increasing dose cisplatin (Group A: 1 and 3 μg/mL, Group B: 2 and 4 μg/mL, and Group C: 3 and 5 μg/mL) using a protocol previously described by Hong et al (Antisense Bcl2 oligonucleotide in cisplatin-resistant bladder cancer cell lines. BJU Int. 2002 July; 90(1):113-7). For each of the 9 cell lines, three different dosage schedules were used: Schedule A—3 treatment/recovery cycles at 1 μg/mL, followed by 3 treatment/recovery cycles at 3 μg/mL; Schedule B—3 treatment/recovery cycles at 2 μg/mL, followed by 3 treatment/recovery cycles at 4 μg/mL; Schedule C—3 treatment/recovery cycles at 3 μg/mL, followed by 3 treatment/recovery cycles at 5 μg/mL. After each treatment, cells were allowed to recover before re-treatment. Gene expression analysis was performed prior to treatment, after 3 and 6 treatments. The experiment design and notations used for each treatment schedule are outlined in Table 1.\n(§3) Thus, for each of the 9 cell lines, 3 different starting doses of cisplatin were used with three different recovery cycles, such that a total of 162 treatment/recovery cycles were induced. Increasing platinum-resistance was confirmed by MTT cell proliferation assays prior to cisplatin treatment, and after 3 and 6 treatment/recovery cycles (for each treatment schedule).\n(§4) MTT solution was produced by dissolving 3-(4,5-Dimethylthiazol-2-yl)-2,5-diphenyltetrazolium bromide (MTT; Sigma, St. Louis, Mo., USA) in phosphate-buffered saline (PBS; 5 mg/mL). Cells (1×10^3) were incubated with 100 μL of culture medium for 48 h in 96-well plates, and 100 μL of MTT solution with RPMI media in a 1:10 concentration was added to each well. After 4 h of incubation, medium was decanted. 100 μL of acidified isopropanol was added to each well. […] MTT assays were performed independently in triplicate per each experimental time point and means reported. For each cell line at each time-point for each schedule, an IC50 was calculated using MTT assay, as well as a percent cell survival at a fixed cisplatin concentration (based upon the mid-point of the log-phase of the dose-response curve for each cell line at baseline), seen in Table 2.\n(§5) Prior to treatment (baseline), and at each dose level following treatment (3 and 6 treatment/recovery cycles) and cell recovery, RNA was extracted and genome-wide expression analysis performed using U133 plus 2.0 Affymetrix chips and cisplatin-resistance was quantified using MTT assay. In parallel, at each of these time-points, RNA was extracted and genome-wide expression analysis performed using U133 plus 2.0 Affymetrix chips. Array analysis was performed on 72 samples. Following recovery from each dose level, cells were evaluated for platinum-resistance using MTT proliferation assay, seen in Table 3. Cell line recovery was defined as the time taken for the cells to repopulate in a normal fashion (to reach 70% confluence in 48 hours). Cell line proliferation rate at 2 μg/mL was used as a measure of resistance."}, "[2]": {"test_system": "C13 ovarian cancer cell line", "description": "as §1, §2, §3, §4, §5"}, "[3]": {"test_system": "OV2008 ovarian cancer cell line", "description": "as §1, §2, §3, §4, §5"}, "[4]": {"test_system": "A2008 ovarian cancer cell line", "description": "as §1, §2, §3, §4, §5"}, "[5]": {"test_system": "IOSER cells", "description": "as §1, §2, §3, §4, §5"}, "[6]": {"test_system": "T8 ovarian cancer cell line", "description": "as §1, §2, §3, §4, §5"}, "[7]": {"test_system": "OVCAR5 ovarian cancer cell line", "description": "as §1, §2, §3, §4, §5"}, "[8]": {"test_system": "IGROV1 ovarian cancer cell line", "description": "as §1, §2, §3, §4, §5"}, "[9]": {"test_system": "A2780CP ovarian cancer cell line", "description": "as §1, §2, §3, §4, §5"}}}
{"smiles": "N.N.[Cl][Pt][Cl]", "note": "[cisplatin]", "values": [{"measurement": "Cell population measurements", "setting": "[1]; A2780S after cisplatin regimen 1.33", "value": 26}, {"measurement": "Cell population measurements", "setting": "[1]; A2780S after cisplatin regimen 2.33", "value": 39}, {"measurement": "Cell population measurements", "setting": "[1]; A2780S after cisplatin regimen 3.33", "value": 64}, {"measurement": "Cell population measurements", "setting": "[1]; A2780S after cisplatin regimen 3.36", "value": 30.5}, {"measurement": "Cell population measurements", "setting": "[1]; A2780S after cisplatin regimen 4.36", "value": 87}, {"measurement": "Cell population measurements", "setting": "[1]; A2780S after cisplatin regimen 5.36", "value": 72}, {"measurement": "Cell population measurements", "setting": "[2]; C13 after cisplatin regimen 1.33", "value": 83}, {"measurement": "Cell population measurements", "setting": "[2]; C13 after cisplatin regimen 2.33", "value": 73}, {"measurement": "Cell population measurements", "setting": "[2]; C13 after cisplatin regimen 3.33", "value": 71}, {"measurement": "Cell population measurements", "setting": "[2]; C13 after cisplatin regimen 3.36", "value": 53}, {"measurement": "Cell population measurements", "setting": "[2]; C13 after cisplatin regimen 4.36", "value": 91}, {"measurement": "Cell population measurements", "setting": "[2]; C13 after cisplatin regimen 5.36", "value": 67}, {"measurement": "Cell population measurements", "setting": "[3]; OV2008 after cisplatin regimen 1.33", "value": 62}, {"measurement": "Cell population measurements", "setting": "[3]; OV2008 after cisplatin regimen 2.33", "value": 54}, {"measurement": "Cell population measurements", "setting": "[3]; OV2008 after cisplatin regimen 3.33", "value": 67}, {"measurement": "Cell population measurements", "setting": "[3]; OV2008 after cisplatin regimen 3.36", "value": 64.8}, {"measurement": "Cell population measurements", "setting": "[3]; OV2008 after cisplatin regimen 4.36", "value": 98}, {"measurement": "Cell population measurements", "setting": "[3]; OV2008 after cisplatin regimen 5.36", "value": 86}, {"measurement": "Cell population measurements", "setting": "[4]; A2008 after cisplatin regimen 1.33", "value": 19}, {"measurement": "Cell population measurements", "setting": "[4]; A2008 after cisplatin regimen 2.33", "value": 33}, {"measurement": "Cell population measurements", "setting": "[4]; A2008 after cisplatin regimen 3.33", "value": 25}, {"measurement": "Cell population measurements", "setting": "[4]; A2008 after cisplatin regimen 3.36", "value": 25.6}, {"measurement": "Cell population measurements", "setting": "[4]; A2008 after cisplatin regimen 4.36", "value": 29}, {"measurement": "Cell population measurements", "setting": "[4]; A2008 after cisplatin regimen 5.36", "value": 37}, {"measurement": "Cell population measurements", "setting": "[5]; IOSER after cisplatin regimen 1.33", "value": 62}, {"measurement": "Cell population measurements", "setting": "[5]; IOSER after cisplatin regimen 2.33", "value": 70}, {"measurement": "Cell population measurements", "setting": "[5]; IOSER after cisplatin regimen 3.33", "value": 79}, {"measurement": "Cell population measurements", "setting": "[5]; IOSER after cisplatin regimen 3.36", "value": 89}, {"measurement": "Cell population measurements", "setting": "[5]; IOSER after cisplatin regimen 4.36", "value": 71}, {"measurement": "Cell population measurements", "setting": "[5]; IOSER after cisplatin regimen 5.36", "value": 84}, {"measurement": "Cell population measurements", "setting": "[6]; T8 after cisplatin regimen 1.33", "value": 42}, {"measurement": "Cell population measurements", "setting": "[6]; T8 after cisplatin regimen 2.33", "value": 64}, {"measurement": "Cell population measurements", "setting": "[6]; T8 after cisplatin regimen 3.33", "value": 67}, {"measurement": "Cell population measurements", "setting": "[6]; T8 after cisplatin regimen 3.36", "value": 68.4}, {"measurement": "Cell population measurements", "setting": "[6]; T8 after cisplatin regimen 4.36", "value": 69}, {"measurement": "Cell population measurements", "setting": "[6]; T8 after cisplatin regimen 5.36", "value": 62}, {"measurement": "Cell population measurements", "setting": "[7]; OVCAR5 after cisplatin regimen 1.33", "value": 49}, {"measurement": "Cell population measurements", "setting": "[7]; OVCAR5 after cisplatin regimen 2.33", "value": 41}, {"measurement": "Cell population measurements", "setting": "[7]; OVCAR5 after cisplatin regimen 3.33", "value": 47}, {"measurement": "Cell population measurements", "setting": "[7]; OVCAR5 after cisplatin regimen 3.36", "value": 66.5}, {"measurement": "Cell population measurements", "setting": "[7]; OVCAR5 after cisplatin regimen 4.36", "value": 69}, {"measurement": "Cell population measurements", "setting": "[7]; OVCAR5 after cisplatin regimen 5.36", "value": 63}, {"measurement": "Cell population measurements", "setting": "[8]; IGROV1 after cisplatin regimen 1.33", "value": 69}, {"measurement": "Cell population measurements", "setting": "[8]; IGROV1 after cisplatin regimen 2.33", "value": 48}, {"measurement": "Cell population measurements", "setting": "[8]; IGROV1 after cisplatin regimen 3.33", "value": 55}, {"measurement": "Cell population measurements", "setting": "[8]; IGROV1 after cisplatin regimen 3.36", "value": 68.3}, {"measurement": "Cell population measurements", "setting": "[8]; IGROV1 after cisplatin regimen 4.36", "value": 69}, {"measurement": "Cell population measurements", "setting": "[8]; IGROV1 after cisplatin regimen 5.36", "value": 58}, {"measurement": "Cell population measurements", "setting": "[9]; A2780CP after cisplatin regimen 1.33", "value": 84}, {"measurement": "Cell population measurements", "setting": "[9]; A2780CP after cisplatin regimen 2.33", "value": 100}, {"measurement": "Cell population measurements", "setting": "[9]; A2780CP after cisplatin regimen 3.33", "value": 91}, {"measurement": "Cell population measurements", "setting": "[9]; A2780CP after cisplatin regimen 3.36", "value": 100}, {"measurement": "Cell population measurements", "setting": "[9]; A2780CP after cisplatin regimen 4.36", "value": 83}, {"measurement": "Cell population measurements", "setting": "[9]; A2780CP after cisplatin regimen 5.36", "value": 98}]}
